From ChEMBL document CHEMBL1125889, “8-(Dicyclopropylmethyl)-1,3-dipropylxanthine: a potent and selective adenosine A1 antagonist with renal protective and diuretic activities” (J Med Chem, 1991)

Columns and labels:
Adenosine receptor A1 [1] = biological target: T1, Adenosine receptor A1 (Cavia porcellus, UniProt P47745); assay: Binding affinity carried out with [3H]cyclohexyladenosine in guinea pig forebrain membranes against adenosine A1 receptor; type: cell membranes, Brain membranes
T1 sequence (P47745 whole entry): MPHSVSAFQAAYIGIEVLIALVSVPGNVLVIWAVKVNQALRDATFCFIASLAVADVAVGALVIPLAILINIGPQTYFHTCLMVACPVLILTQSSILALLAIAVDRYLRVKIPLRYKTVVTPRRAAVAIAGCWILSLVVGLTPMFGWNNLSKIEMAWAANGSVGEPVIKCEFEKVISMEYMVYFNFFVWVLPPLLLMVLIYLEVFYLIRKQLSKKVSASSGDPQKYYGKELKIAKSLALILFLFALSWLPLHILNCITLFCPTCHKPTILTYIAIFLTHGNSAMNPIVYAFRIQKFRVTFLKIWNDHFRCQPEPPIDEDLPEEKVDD

Cavia porcellus = organism: Cavia porcellus; assay: Ki ratio evaluated as the Ki of A2 to that A1 receptor values.
Adenosine A2 receptor [2] = biological target: T2, Adenosine A2 receptor (Rattus norvegicus, UniProt P29276+P30543); type: cell membranes, Membrane
Adenosine receptor A1 [3] = biological target: T1, Adenosine receptor A1
Description: Inhibition of [3H]cyclohexyladenosine binding to guinea pig forebrain membranes Adenosine A1 receptor

Rattus norvegicus [4] = organism: Rattus norvegicus; conditions: in vivo, po, 6 h
Description: Compound administered at a dose of 6.25 mg/25 mL/kg orally to rats, urine collected for 6 hr and measured for K+ excretion.

Rattus norvegicus [5] = organism: Rattus norvegicus; conditions: in vivo, po, 6 h; remark: listed apart in the source
Description: Compound administered at a dose of 6.25 mg/25 mL/kg orally to rats, urine collected for 6 hr and measured for Na+ excretion.

Rattus norvegicus [6] = organism: Rattus norvegicus; conditions: in vivo, po, 6 h; remark: listed apart in the source
Description: Compound administered at a dose of 6.25 mg/25 mL/kg orally to rats, urine collected for 6 hr and measured for urine volume.

Adenosine A2 receptor [7] = biological target: T2, Adenosine A2 receptor; type: cell membranes, Membrane; remark: listed apart in the source
Rattus norvegicus [8] = assay: Compound was evaluated for Serum creatinine concentration in glycerol injected rats treated with 1 mg/kg administered intraperitoneally; type: functional, organism-based; design: dose 1 mg/kg
Rattus norvegicus [9] = assay: Compound was evaluated for Serum creatinine concentration in glycerol injected rats treated with 10 mg/kg administered intraperitoneally.; type: functional, organism-based; design: dose 10 mg/kg

Ki (Adenosine receptor A1 [1]) | Ki ratio (Cavia porcellus) | Ki (Adenosine A2 receptor [2]) | SMILES | also measured
25 nM | – | – | CCCn1c(=O)c2[nH]c(C(C)CC)nc2n(CCC)c1=O (centres undefined) | –
12 nM | 34 | – | CC(C)Cn1c(=O)n(C)c(=O)c2[nH]c(C(C3CC3)C3CC3)nc21 | –
5.5 nM | 80 | – | CCCCn1c(=O)c2nc(C(C3CC3)C3CC3)[nH]c2n(CCCC)c1=O | –
– | 7.6 | 590 nM | CCCC(CCC)c1nc2c(=O)n(CCC)c(=O)n(CCC)c2[nH]1 | –
– | – | – | Cn1c(=O)c2c(ncn2C)n(C)c1=O [CAFFEINE] | Ki (Adenosine receptor A1 [3]): > 100000 nM; K+ excretion (Rattus norvegicus [4]): 0.99 ml 6hr-1 100g-1; K+ excretion (Rattus norvegicus [5]): 1.1 ml 6hr-1 100g-1; Urine volume (Rattus norvegicus [6]): 0.92 ml 6hr-1 100g-1
250 nM | 8.8 | – | CCCn1c(=O)c2nc(C(c3ccc(OC)cc3)C3CC3)[nH]c2n(CCC)c1=O (centres undefined) | Ki (Adenosine A2 receptor [7]): 2200 nM
13000 nM | 0.48 | – | CCCn1c(=O)c2c(nc(C(C3CC3)C3CC3)n2CCC)n(CCC)c1=O | –
13 nM | – | – | CCn1c(=O)c2[nH]c(C(C3CC3)C3CC3)nc2n(CC)c1=O | –
– | – | – | CCCn1c(=O)c2[nH]c(C3CCCC3)nc2n(CCC)c1=O [1,3-DIPROPYL-8-CYCLOPENTYLXANTHINE [DPCPX]] | Serum creatinine conc (Rattus norvegicus [8]): 3.75 mg/dL; K+ excretion (Rattus norvegicus [4]): 1.26 ml 6hr-1 100g-1; Na+ excretion (Rattus norvegicus [5]): 1.98 ml 6hr-1 100g-1; Urine volume (Rattus norvegicus [6]): 1.87 ml 6hr-1 100g-1
– | > 48 | – | CCCn1c(=O)c2nc(C(c3ccccc3)c3ccccc3)[nH]c2n(CCC)c1=O | Ki (Adenosine A2 receptor [7]): > 100000 nM
– | 53 | – | CCn1c(=O)c2nc(C(C3CC3)C3CC3)[nH]c2n(CC)c1=O | –
81 nM | 33 | – | Cn1c(=O)c2nc(C(C3CC3)C3CC3)[nH]c2n(C)c1=O | –
78 nM | – | – | CCCC(CCC)c1nc2c([nH]1)c(=O)n(CCC)c(=O)n2CCC | –
1600 nM | 8.8 | – | CCCn1c(=O)c2c(nc(C(C3CC3)C3CC3)n2CC)n(CCC)c1=O | –
9.7 nM | – | – | CCCn1c(=O)c2[nH]c(C(C3CC3C)C3CC3C)nc2n(CCC)c1=O (centres undefined) | –
– | 2.6 | 580 nM | CCCn1c(=O)c2nc(C(C)Cc3ccc(OC)cc3)[nH]c2n(CCC)c1=O (centres undefined) | –
– | 48 | 1200 nM | CCCn1c(=O)c2nc(C(C)CC)[nH]c2n(CCC)c1=O (centres undefined) | –
250 nM | – | – | CCCn1c(=O)c2[nH]c(C(c3ccc(F)cc3)C3CC3)nc2n(CCC)c1=O (centres undefined) | –
– | – | – | Cn1c(=O)c2[nH]cnc2n(C)c1=O.O [THEOPHYLLINE] | Serum creatinine conc (Rattus norvegicus [9]): 5.32 mg/dL; K+ excretion (Rattus norvegicus [4]): 1.16 ml 6hr-1 100g-1; Na+ excretion (Rattus norvegicus [5]): 1.52 ml 6hr-1 100g-1; Urine volume (Rattus norvegicus [6]): 1.42 ml 6hr-1 100g-1

Ki (Adenosine receptor A1 [1]) | Ki ratio (Cavia porcellus) | Ki (Adenosine A2 receptor [2]) | SMILES | also measured
– | 10 | 4000 nM | CCCn1c(=O)c2nc(C(c3ccccc3)C3CCCC3)[nH]c2n(CCC)c1=O (centres undefined) | –
100 nM | 11 | 1100 nM | CCCn1c(=O)c2nc(C(CC)c3ccccc3)[nH]c2n(CCC)c1=O (centres undefined) | –
– | 1.8 | 480 nM | CCCn1c(=O)c2nc(C(C)Cc3ccccc3)[nH]c2n(CCC)c1=O (centres undefined) | –
1300 nM | > 77 | > 100000 nM | CCCn1c(=O)[nH]c(=O)c2[nH]c(C(C3CC3)C3CC3)nc21 | –
49 nM | 31 | 1500 nM | CCCn1c(=O)c2nc(C(C)C)[nH]c2n(CCC)c1=O | –
– | 100 | 1000 nM | CCCn1c(=O)c2nc(C(C3CC3C)C3CC3C)[nH]c2n(CCC)c1=O (centres undefined) | –
2100 nM | – | – | CCCn1c(=O)c2[nH]c(C(c3ccccc3)c3ccccc3)nc2n(CCC)c1=O | –
7400 nM | 3.9 | – | CCCn1c(=O)c2c(nc(C(C3CC3)C3CC3)n2C)n(CCC)c1=O | –
220 nM | – | – | CCCn1c(=O)c2[nH]c(C(C)Cc3ccc(OC)cc3)nc2n(CCC)c1=O (centres undefined) | –
900 nM | 3.7 | 3300 nM | CCCn1c(=O)c2nc(C(CC)Oc3ccccc3)[nH]c2n(CCC)c1=O (centres undefined) | –
– | 30 | 570 nM | CCCn1c(=O)c2nc(C(CC)CC)[nH]c2n(CCC)c1=O | –
> 100000 nM | – | > 100000 nM | CCCn1c(=O)c2nc(C(C3CCCCC3)C3CCCCC3)[nH]c2n(CCC)c1=O | –
– | – | – | NS(=O)(=O)c1cc(C(=O)O)c(NCc2ccco2)cc1Cl | Serum creatinine conc (Rattus norvegicus [9]): 4.17 mg/dL
3000 nM | > 33 | > 100000 nM | CCCn1c(=O)c2nc(C(C)N)[nH]c2n(CCC)c1=O (centres undefined) | –
– | – | – | CCCn1c(=O)c2nc[nH]c2n(CCC)c1=O | Ki (Adenosine receptor A1 [3]): 1200 nM
400 nM | – | – | CCCn1c(=O)c2[nH]c(C(c3ccccc3)C3CCCC3)nc2n(CCC)c1=O (centres undefined) | –
260 nM | – | – | CCCn1c(=O)c2[nH]c(C(C)Cc3ccccc3)nc2n(CCC)c1=O (centres undefined) | –
150 nM | 12 | 1800 nM | CCCn1c(=O)c2nc(C(c3ccccc3)C3CC3)[nH]c2n(CCC)c1=O (centres undefined) | –
– | 5.6 | 1400 nM | CCCn1c(=O)c2nc(C(c3ccc(F)cc3)C3CC3)[nH]c2n(CCC)c1=O (centres undefined) | –

SMILES | Ki (Adenosine receptor A1 [1]) | Ki ratio (Cavia porcellus) | Ki (Adenosine A2 receptor [2]) | also measured
CCCn1c(=O)c2nc(C(C3CC3)C3CC3)[nH]c2n(CCC)c1=O | – | 140 | – | Serum creatinine conc (Rattus norvegicus [8]): 2.99 mg/dL
